Experimental data as given in article PMC9685933, “Tiliroside suppresses triple-negative breast cancer as a multifunctional CAXII inhibitor” (Cancer Cell International, 2022).

Target: T1, CAXII (Homo sapiens, UniProt O43570)
T1 construct: gene CA12
Test: CAXII esterase activity assay (4-nitrophenol absorbance) in MDA-MB-231 cells; […] in BT-549 cells
Type: cell-based

T1 sequence (O43570 25-354): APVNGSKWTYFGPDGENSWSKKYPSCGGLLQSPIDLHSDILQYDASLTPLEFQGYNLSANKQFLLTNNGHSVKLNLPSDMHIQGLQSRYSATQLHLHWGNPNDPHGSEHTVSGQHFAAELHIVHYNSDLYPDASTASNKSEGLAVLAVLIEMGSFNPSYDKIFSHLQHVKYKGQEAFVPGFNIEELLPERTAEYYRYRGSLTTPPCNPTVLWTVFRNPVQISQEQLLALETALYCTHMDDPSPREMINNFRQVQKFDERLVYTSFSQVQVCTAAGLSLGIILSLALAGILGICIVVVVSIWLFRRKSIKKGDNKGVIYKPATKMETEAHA

Which IC50 does the source give for `O=C(/C=C/c1ccc(O)cc1)OC[C@H]1O[C@@H](Oc2c(-c3ccc(O)cc3)oc3cc(O)cc(O)c3c2=O)[C@H](O)[C@@H](O)[C@@H]1O` [TS, Tiliroside] here?
Its IC50 is 20.9 ± 5.8 µM.
